From ChEMBL document CHEMBL1759957, “Synthesis and antibacterial evaluation of novel 8-fluoro Norfloxacin derivatives as potential probes for methicillin and vancomycin-resistant Staphylococcus aureus” (2011) come the findings set out here.

What all share (test): microbe, parasite or virus in culture
Holding throughout (type): functional

One assay concerns Klebsiella pneumoniae. The following applies: ATCC 27736, 24 h.
Assay [1] has as its system Staphylococcus aureus. The following applies: ATCC 25923, 24 h.
Assay [2] relates to Staphylococcus aureus. Conditions: ATCC 29213, 24 h.

In brackets after ≈: the same amount, converted by molar mass.

Turning to `Cc1cc(N2CCN(c3cc4c(cc3F)c(=O)c(C(=O)O)cn4Cc3ccc(C(F)(F)F)cc3)CC2)nc(N2CCN(C)CC2)n1`, the values for the MIC with Klebsiella pneumoniae, against Staphylococcus aureus [1] and in the assay with Staphylococcus aureus [2] were 6.25 µg/mL (≈ 9.77 µM), 6.25 µg/mL (≈ 9.77 µM) and 12.5 µg/mL (≈ 19.5 µM), respectively.
On to `CCCCNc1nc(C)cc(N2CCN(c3c(F)cc4c(=O)c(C(=O)O)cn(Cc5ccc(C(F)(F)F)cc5)c4c3F)CC2)n1`, for which the figures for the MIC in the assay with Klebsiella pneumoniae, in the assay on Staphylococcus aureus [1] and with Staphylococcus aureus [2] were 6.25 µg/mL (≈ 9.91 µM), 6.25 µg/mL (≈ 9.91 µM) and 1.56 µg/mL (≈ 2.47 µM), respectively.
In the case of `O=C(O)c1cn(C2CC2)c2cc(N3CCNCC3)c(F)cc2c1=O` [CIPROFLOXACIN], the MIC with Klebsiella pneumoniae is 0.19 µg/mL (≈ 0.573 µM); with Staphylococcus aureus [1] it was 0.09 µg/mL (≈ 0.272 µM); in the assay on Staphylococcus aureus [2], 0.38 µg/mL (≈ 1.15 µM).
Turning to `CCn1cc(C(=O)O)c(=O)c2cc(F)c(N3CCNCC3)cc21` [NORFLOXACIN], the MIC in the assay with Klebsiella pneumoniae worked out at 0.39 µg/mL (≈ 1.22 µM); against Staphylococcus aureus [1], 0.78 µg/mL (≈ 2.44 µM); in the assay on Staphylococcus aureus [2], 1.56 µg/mL (≈ 4.89 µM).
